{"source": "patent US10294202B2", "about": "“Pyrrolidinones as herbicides” (FMC Corporation, priority 2013, dated 2019)", "experiment_in_all_cases": "Test C pre-/postemergence herbicide test", "key": {"[1]": {"system": "bromegrass, downy", "format": "in vivo, Bromus tectorum", "conditions": "Preemergence; for Bromegrass, Downy plant response rating: 31 g ai/ha", "procedure,_shortened": "(§1)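 Plants grown and held in a greenhouse for 13 to 15 days post-spray, then rated 0–100 by visual comparison with controls. Pre treatments targeted seeds in loam and sand; post treatments targeted 1- to 4-leaf plants in peat-based potting medium.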"}, "[2]": {"system": "cocklebur", "format": "in vivo, Xanthium strumarium", "conditions": "Preemergence", "from_the_text": "(§2) Seeds of plant species selected from blackgrass (Alopecurus myosuroides), ryegrass, Italian (Italian ryegrass, Lolium multiflorum), wheat (winter wheat, Triticum aestivum), galium (catchweed bedstraw, Galium aparine), corn (Zea mays), crabgrass, large (large crabgrass, Digitaria sanguinalis), foxtail, giant (giant foxtail, Setaria faberii), johnsongrass (Sorghum halepense), lambsquarters (Chenopodium album), morningglory (Ipomoea coccinea), nutsedge, yellow (yellow nutsedge, Cyperus esculentus), pigweed (Amaranthus retroflexus), ragweed (common ragweed, Ambrosia elatior), soybean (Glycine max), barnyardgrass (Echinochloa crus-galli), oilseed rape (Brassica napus), waterhemp (common waterhemp, Amaranthus rudis), kochia (Kochia scoparia), oat, wild (wild oat, Avena fatua), surinam grass (Brachiaria decumbens), foxtail, green (green foxtail, Setaria viridis), goosegrass (Eleusine indica), bromegrass, downy (downy bromegrass, Bromus tectorum), nightshade (eastern black nightshade, Solanum ptycanthum), cocklebur (common cocklebur, Xanthium strumarium), cupgrass, woolly (woolly cupgrass, Eriochloa villosa), bermudagrass (Cynodon dactylon), sunflower, (common oilseed sunflower, Helianthus annuus), Russian thistle (Salsola kali) and velvetleaf (Abutilon theophrasti) were planted into a blend of loam soil and sand and treated preemergence with test chemicals formulated in a non-phytotoxic solvent mixture which included a surfactant. At the same time, plants selected from these crop and weed species and also barley (winter barley, Hordeum vulgare), […]), chickweed (common chickweed, Stellaria media), deadnettle (henbit deadnettle, Lamium amplexicaule), and canarygrass (littleseed canarygrass, Phalaris minor) were planted in pots containing Redi-Earth® planting medium (Scotts Company, 14111 Scottslawn Road, Marysville, Ohio 43041) comprising spaghnum peat moss, vermiculite, wetting agent and starter nutrients and treated with postemergence applications of test chemicals formulated in the same manner. Plants ranged in height from 2 to 18 cm (1- to 4-leaf stage) for postemergence treatments. Treated plants and controls were maintained in a greenhouse for 13 to 15 days, after which time all species were compared to controls and visually evaluated. Plant response ratings, summarized in Table C, are based on a scale of 0 to 100 where 0 is no effect and 100 is complete control. A dash (-) response means no test result."}, "[3]": {"system": "cupgrass, woolly", "format": "in vivo, Eriochloa villosa", "conditions": "Preemergence; for Cupgrass, Woolly plant response rating: 31 g ai/ha", "procedure,_shortened": "as §1"}, "[4]": {"system": "goosegrass", "format": "in vivo, Eleusine indica", "conditions": "Preemergence; for Goosegrass plant response rating: 31 g ai/ha", "procedure,_shortened": "as §1"}, "[5]": {"system": "Russian thistle", "format": "in vivo, Salsola kali", "conditions": "Preemergence", "procedure,_shortened": "as §1"}, "[6]": {"system": "nightshade", "format": "in vivo, Solanum ptycanthum", "conditions": "Preemergence", "from_the_text": "as §2"}, "[7]": {"system": "sunflower", "format": "in vivo, Helianthus annuus", "conditions": "Preemergence", "from_the_text": "as §2"}, "[8]": {"system": "foxtail, green", "format": "in vivo, Setaria viridis", "conditions": "Preemergence; for Foxtail, Green plant response rating: 31 g ai/ha", "from_the_text": "as §2"}, "[9]": {"system": "surinam grass", "format": "in vivo, Brachiaria decumbens", "conditions": "Preemergence", "from_the_text": "as §2"}, "[10]": {"system": "bermudagrass", "format": "in vivo, Cynodon dactylon", "conditions": "Preemergence; for Bermudagrass plant response rating: 31 g ai/ha", "from_the_text": "as §2"}, "[11]": {"conditions": "scale 0 to 100 (0 no effect, 100 complete control)"}, "[12]": {"conditions": "125 g ai/ha, scale 0 to 100 (0 no effect, 100 complete control)"}, "[13]": {"conditions": "250 g ai/ha, scale 0 to 100 (0 no effect, 100 complete control)"}}}
{"molecule": "O=C1NCC(c2ccc3c(c2)OC(F)(F)O3)C1C(=O)Nc1cccc(F)c1F", "note": "(stereo not drawn) [Compound 62]", "values": [{"measurement": "Bromegrass, Downy plant response rating", "setting": "[1]; [11]", "result": 0}, {"measurement": "Plant response rating, Bromegrass, Downy", "setting": "[1]; 62 g ai/ha, scale 0 to 100", "result": 0}, {"measurement": "Plant response rating, Bromegrass, Downy", "setting": "[1]; [12]", "result": 0}, {"measurement": "Plant response rating, Bromegrass, Downy", "setting": "[1]; [13]", "result": 0}, {"measurement": "Cocklebur plant response rating", "setting": "[2]; 31 g ai/ha, scale 0 to 100 (0 no effect, 100 complete control)", "result": 0}, {"measurement": "Plant response rating, Cocklebur", "setting": "[2]; [12]", "result": 0}, {"measurement": "Plant response rating, Cocklebur", "setting": "[2]; [13]", "result": 5}, {"measurement": "Cupgrass, Woolly plant response rating", "setting": "[3]; [11]", "result": 65}, {"measurement": "Plant response rating, Cupgrass, Woolly", "setting": "[3]; 62 g ai/ha, scale 0 to 100", "result": 75}, {"measurement": "Plant response rating, Cupgrass, Woolly", "setting": "[3]; [12]", "result": 80}, {"measurement": "Plant response rating, Cupgrass, Woolly", "setting": "[3]; [13]", "result": 85}, {"measurement": "Goosegrass plant response rating", "setting": "[4]; [11]", "result": 10}, {"measurement": "Plant response rating, Goosegrass", "setting": "[4]; 62 g ai/ha, scale 0 to 100", "result": 25}, {"measurement": "Plant response rating, Goosegrass", "setting": "[4]; [12]", "result": 70}, {"measurement": "Plant response rating, Russian Thistle", "setting": "[5]; 62 g ai/ha, scale 0 to 100", "result": 30}, {"measurement": "Plant response rating, Russian Thistle", "setting": "[5]; [12]", "result": 85}, {"measurement": "Plant response rating, Nightshade", "setting": "[6]; 62 g ai/ha, scale 0 to 100", "result": 15}, {"measurement": "Plant response rating Sunflower", "setting": "[7]; 62 g ai/ha, scale 0 to 100", "result": 20}, {"measurement": "Plant response rating Sunflower", "setting": "[7]; [12]", "result": 25}, {"measurement": "Foxtail, Green plant response rating", "setting": "[8]; [11]", "result": 75}, {"measurement": "Plant response rating, Foxtail, Green", "setting": "[8]; 62 g ai/ha, scale 0 to 100", "result": 90}, {"measurement": "Plant response rating, Foxtail, Green", "setting": "[8]; [12]", "result": 90}, {"measurement": "Plant response rating, Foxtail, Green", "setting": "[8]; [13]", "result": 90}, {"measurement": "Plant response rating, Surinam Grass", "setting": "[9]; 62 g ai/ha, scale 0 to 100", "result": 60}, {"measurement": "Plant response rating, Surinam Grass", "setting": "[9]; [12]", "result": 80}, {"measurement": "Bermudagrass plant response rating", "setting": "[10]; [11]", "result": 0}, {"measurement": "Plant response rating, Bermudagrass", "setting": "[10]; 62 g ai/ha, scale 0 to 100", "result": 30}, {"measurement": "Plant response rating, Bermudagrass", "setting": "[10]; [12]", "result": 50}, {"measurement": "Plant response rating, Bermudagrass", "setting": "[10]; [13]", "result": 60}]}
{"molecule": "O=C1NCC(c2cccc(Br)c2)C1C(=O)Nc1cccc(F)c1F", "note": "(stereo not drawn) [Compound 64]", "values": [{"measurement": "Bromegrass, Downy plant response rating", "setting": "[1]; [11]", "result": 0}, {"measurement": "Plant response rating, Bromegrass, Downy", "setting": "[1]; 62 g ai/ha, scale 0 to 100", "result": 0}, {"measurement": "Plant response rating, Bromegrass, Downy", "setting": "[1]; [12]", "result": 0}, {"measurement": "Plant response rating, Bromegrass, Downy", "setting": "[1]; [13]", "result": 50}, {"measurement": "Plant response rating, Cocklebur", "setting": "[2]; 62 g ai/ha, scale 0 to 100", "result": 0}, {"measurement": "Cupgrass, Woolly plant response rating", "setting": "[3]; [11]", "result": 30}, {"measurement": "Plant response rating, Cupgrass, Woolly", "setting": "[3]; 62 g ai/ha, scale 0 to 100", "result": 70}, {"measurement": "Plant response rating, Cupgrass, Woolly", "setting": "[3]; [12]", "result": 85}, {"measurement": "Plant response rating, Cupgrass, Woolly", "setting": "[3]; [13]", "result": 90}, {"measurement": "Goosegrass plant response rating", "setting": "[4]; [11]", "result": 20}, {"measurement": "Plant response rating, Goosegrass", "setting": "[4]; 62 g ai/ha, scale 0 to 100", "result": 20}, {"measurement": "Plant response rating, Goosegrass", "setting": "[4]; [12]", "result": 25}, {"measurement": "Plant response rating, Russian Thistle", "setting": "[5]; 62 g ai/ha, scale 0 to 100", "result": 0}, {"measurement": "Plant response rating, Russian Thistle", "setting": "[5]; [12]", "result": 0}, {"measurement": "Plant response rating, Nightshade", "setting": "[6]; 62 g ai/ha, scale 0 to 100", "result": 0}, {"measurement": "Plant response rating, Nightshade", "setting": "[6]; [12]", "result": 0}, {"measurement": "Plant response rating Sunflower", "setting": "[7]; 62 g ai/ha, scale 0 to 100", "result": 0}, {"measurement": "Plant response rating Sunflower", "setting": "[7]; [12]", "result": 0}, {"measurement": "Foxtail, Green plant response rating", "setting": "[8]; [11]", "result": 70}, {"measurement": "Plant response rating, Foxtail, Green", "setting": "[8]; 62 g ai/ha, scale 0 to 100", "result": 85}, {"measurement": "Plant response rating, Foxtail, Green", "setting": "[8]; [12]", "result": 90}, {"measurement": "Plant response rating, Foxtail, Green", "setting": "[8]; [13]", "result": 98}, {"measurement": "Plant response rating, Surinam Grass", "setting": "[9]; 62 g ai/ha, scale 0 to 100", "result": 50}, {"measurement": "Plant response rating, Surinam Grass", "setting": "[9]; [12]", "result": 65}, {"measurement": "Bermudagrass plant response rating", "setting": "[10]; [11]", "result": 0}, {"measurement": "Plant response rating, Bermudagrass", "setting": "[10]; 62 g ai/ha, scale 0 to 100", "result": 0}, {"measurement": "Plant response rating, Bermudagrass", "setting": "[10]; [12]", "result": 25}, {"measurement": "Plant response rating, Bermudagrass", "setting": "[10]; [13]", "result": 55}]}
